Test results as given in patent publication US20250195468A1, “METHODS AND COMPOSITIONS FOR TREATING COLORECTAL CANCER WITH INDOXYL SULFATE” (National Institute of Immunology, priority 2023, published 2025).
Where a name gives a salt, the structure may show the parent alone.

Key:
[1] = test system: human adenocarcinoma cells; assay: Comet assay (DNA damage); assay type: cell-based; settings: cell lysate after IS treatment
Procedure: In the in vitro study, cells were exposed to various doses of indoxyl sulfate ranging from 0.038 mM to 10 mM for three different incubation periods (24 hours, 48 hours, and 72 hours). A decrease in cell proliferation efficiency was observed after 48 hours of treatment, with the most significant effects observed at concentrations of 5 mM and 10 mM of indoxyl sulfate. […] Decrease in cellular ATP content indicates the diminished cellular metabolic activity and may be linked with cell death. Considering these findings. the apoptotic effect of indoxyl sulfate was examined. […] Another study on the osteoblast cell line MC3T3-E1 also confirmed that IS acts as a bone toxin by inducing cell apoptosis and inhibiting differentiation. […] To account for this study. cells were also assessed for oxidative stress in this invention by staining them with […] (DHE) after 48 hours of treatment. […] The potential for IS to cause DNA damage was also investigated.

HT-29 cells [2] = assay: Apoptosis assay, Annexin V-FITC/PI flow cytometry; assay type: cell-based, human; settings: for apoptotic percentage: 48 hours, untreated 3%
Procedure: (§1) The apoptotic effect of IS was evaluated on HCT-116 and HT-29 cells using the propidium iodide (PI)/Annexin V-fluorescein isothiocyanate (FITC) dual staining kit (ab14085: Abcam, USA). Duplicate wells of cells were cultured at a density of 3×10^5 cells per well in 6-well plates. After 24 hours of seeding, the cells were treated with IS at concentrations of 1.25 mM, 5 mM, and 10 mM. Following a 48-hour treatment period, the cells were harvested using trypsin and washed twice with PBS. After the washing steps, the cells were resuspended in 1 ml of fresh media and counted at each concentration using a hematocytometer. From each concentration, 2×10^5 cells were taken and dissolved in 500 μl of binding buffer, 5 μl of PI, and 5 μl of Annexin V-FITC. The cells were then incubated in the dark at room temperature for 30 minutes. Subsequently, the cells were analyzed for apoptosis using flow cytometry (BD Biosciences, FACS Canto™ Flow Cytometer, Germany) at 488 nm. Untreated cells were used as controls for comparison.

HCT-116 cells [3] = assay: Apoptosis assay, Annexin V-FITC/PI flow cytometry; assay type: cell-based, human; settings: for apoptotic percentage: 48 hours, untreated 3%
Procedure: as §1

[4] = test system: inflammatory cytokines IL-17A, IL-1β and TNF-α; assay: Cytokine study (ELISA of blood samples); assay type: in vivo, mice; settings: IP and IR, zero, 1 month, 2 month
Procedure: Each group consisted of six mice. […] For the cytokine study, blood samples were collected from the mice. The cytokines of interest, IL-1β, TNF-α, and IL-17A, were analyzed in all groups at three different time points: baseline (time point zero), one month, and two months. The analysis was performed using an ELISA kit from R&D Systems. The experimental procedure for cytokine study followed the instructions provided with the kit. In summary, each well of the ELISA plate was coated with a specific monoclonal antibody against the respective cytokines. Then, 50 ul of standard, control, and sample were added to the appropriate wells. The plate was incubated at room temperature (RT) for 2 hours. After incubation, each well was washed four times with 400 ul of buffer to remove any unbound substances. Subsequently, 100 ul of the secondary antibody conjugate was added to each well and incubated at RT for another 2 hours. Following the second incubation, the wells were washed four times, and 100 ul of substrate solution was added. The plate was then incubated for 30 minutes at RT in the dark. After incubation, 100 ul of stop solution was added to each well to halt the enzymatic reaction. The optical density (OD) of the samples was measured at wavelengths of 450 nm and 570 nm within 30 minutes of adding the stop solution. To obtain the final readings, the absorbance at 570 nm was subtracted from the absorbance at 450 nm.

HT-29 cells [5] = assay: Clonogenic (colony forming) assay; assay type: cell-based, human; settings: HT-29, 1.25-10 mM for 48 hours, 10 days colony growth
Procedure: (§2) To assess the colony-forming ability of cells after treatment with IS, a colony forming assay was performed. HCT-116 and HT-29 cells were cultured in 6-well plates at a density of 2×10^5 cells per well. After 24 hours of seeding, the cells were exposed to IS at concentrations of 1.25 mM, 5 mM, and 10 mM. Following a 48-hour treatment period, the cells were harvested using trypsin and counted for each treatment. From each treatment group, 400, 800, and 1200 cells were plated and incubated for 10 days in 6-well plates. During the incubation period, the media were replenished every alternate day. After 10 days, the colonies were washed with PBS and stained with 0.5% crystalline violet. The cells were then fixed with 6% glutaraldehyde. The colonies were visualized and counted using ImageJ software. The clonogenic efficiency of the treated cells was compared to that of the untreated cells.

HCT-116 cells [6] = assay: Clonogenic (colony forming) assay; assay type: cell-based, human; settings: HCT-116, 1.25-10 mM for 48 hours, 10 days colony growth
Procedure: as §2

HT-29 cells [7] = assay: Cellular imaging (cell morphology); assay type: cell-based, human; settings: HT-29, 1.25-10 mM, 24, 48, 72 hours
Procedure: (§3) To assess the morphological changes of the cells following treatment, HT-29 and HCT-116 cells were cultured in 12-well plates at a concentration of […] cells per well. After 24 hours of seeding, the cells were treated with IS at concentrations of 1.25 mM, 5 mM, and 10 mM. The cells were exposed to IS in triplicate for three different incubation periods: 24 hours, 48 hours, and 72 hours. After the respective incubation periods, the cells were examined using a Nikon microscope equipped with a 20× objective. Images were captured using a digital camera and the NIS-Elements 3.0 software.

HCT-116 cells [8] = assay: Cellular imaging (cell morphology); assay type: cell-based, human; settings: HCT-116, 1.25-10 mM, 24, 48, 72 hours
Procedure: as §3

[9] = 10 mM, 48-hour treatment, stated for cells in general

Structure (SMILES): O=S(=O)(O)Oc1c[nH]c2ccccc12 [IS, Indoxyl Sulfate]
- DNA damage (comet formation) [1]: does not show formation of any comet
- increase in cell apoptosis compared to the control (HT-29 cells [2]; [9]): 10%
- apoptotic percentage (HT-29 cells [2]; HT-29, 5 mM): 8%
- apoptotic percentage (HT-29 cells [2]; HT-29, 10 mM): 12%
- increase in cell apoptosis compared to the control (HCT-116 cells [3]; [9]): 10%
- apoptotic percentage (HCT-116 cells [3]; HCT-116, 5 mM): 9%
- apoptotic percentage (HCT-116 cells [3]; HCT-116, 10 mM): 13%
- level of IL-1β vs control groups [4]: no significant differences
- level of IL-17A vs control groups [4]: no significant differences
- level of TNF-α vs control groups [4]: no significant differences
- number of colonies formed compared to control (HT-29 cells [5]): significant reduction in the number of colonies formed
- number of colonies formed compared to control (HCT-116 cells [6]): significant reduction in the number of colonies formed
- cell morphology (HT-29 cells [7]): rounded morphology, reduced cell numbers, and detachment from the culture substrate
- cell morphology (HCT-116 cells [8]): rounded morphology, reduced cell numbers, and detachment from the culture substrate
